This note sets out measurements from patent US20260008768A1, “UREA DERIVATIVES FOR INHIBITING NLRP3 AND USES THEREOF” (VENTUS THERAPEUTICS U.S., INC., priority 2023, published 2026).

Chain of human NLRP3 (Q96P20 whole entry): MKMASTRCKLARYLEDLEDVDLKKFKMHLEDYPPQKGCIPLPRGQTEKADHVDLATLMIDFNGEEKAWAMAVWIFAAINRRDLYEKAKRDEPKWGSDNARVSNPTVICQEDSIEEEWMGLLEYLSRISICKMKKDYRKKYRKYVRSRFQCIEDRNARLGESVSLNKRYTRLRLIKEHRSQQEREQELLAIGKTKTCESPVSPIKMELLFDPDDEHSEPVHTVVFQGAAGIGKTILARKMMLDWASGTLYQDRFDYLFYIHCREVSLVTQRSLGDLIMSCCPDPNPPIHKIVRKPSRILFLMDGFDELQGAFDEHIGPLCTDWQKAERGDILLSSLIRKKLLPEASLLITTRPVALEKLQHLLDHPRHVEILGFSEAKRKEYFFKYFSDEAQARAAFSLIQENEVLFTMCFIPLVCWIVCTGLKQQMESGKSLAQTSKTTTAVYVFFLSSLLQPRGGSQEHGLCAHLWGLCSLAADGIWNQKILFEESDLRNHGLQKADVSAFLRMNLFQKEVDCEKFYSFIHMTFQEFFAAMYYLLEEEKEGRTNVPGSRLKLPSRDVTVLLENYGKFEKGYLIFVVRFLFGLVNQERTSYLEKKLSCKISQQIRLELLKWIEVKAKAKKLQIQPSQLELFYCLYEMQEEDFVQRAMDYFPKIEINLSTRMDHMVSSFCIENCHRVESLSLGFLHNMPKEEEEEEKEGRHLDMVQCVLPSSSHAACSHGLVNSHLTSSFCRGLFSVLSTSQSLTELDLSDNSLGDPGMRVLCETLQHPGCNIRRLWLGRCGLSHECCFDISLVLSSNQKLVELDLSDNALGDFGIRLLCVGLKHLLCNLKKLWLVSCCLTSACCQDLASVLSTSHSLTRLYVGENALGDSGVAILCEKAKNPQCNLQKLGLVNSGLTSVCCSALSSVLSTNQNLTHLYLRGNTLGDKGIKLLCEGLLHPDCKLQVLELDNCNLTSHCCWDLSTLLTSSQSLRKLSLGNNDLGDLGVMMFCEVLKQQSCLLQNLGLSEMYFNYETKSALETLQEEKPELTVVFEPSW

In the assay the target is human NLRP3 (Homo sapiens, UniProt Q96P20). The assay is described as follows: Scintillation Proximity (SPA) NLRP3 Assay, displacement of 3H-MCC950. In kind it is binding. As to conditions: Table B, activity class; displacement of 3H-MCC950 from human NLRP3. As to the method:
Improved NLRP3 binding correlates with increased affinity for NLRP3 protein and, by extension, increased ability to interfere with its function.
SPA experiments were conducted in a total volume of 20 μL assay buffer containing 20 mM HEPES pH 7.5, 150 mM NaCl, 5 mM MgCl2, 0.01% (v/v) Tween-20, 0.01% (w/v) bovine serum albumin (BSA) and 100 μM of adenosine diphosphate (ADP). A human NLRP3 protein (350 nM) (see, e.g., Sharif et al., Nature (2019) 570:338-343; Hochheiser et al., Nature (2022) 604:184-189; Adreeva et al., Cell (2021) 184:6299-6312; Wang et al., J Exp. Med. (2021) 219:e20211147) was incubated with various concentration of compounds in 5% dimethyl sulfoxide (DMSO) final for 15 minutes at room temperature in a white half-area 96 well OptiPlate (PerkinElmer #6002290) before adding 125 nM final of 3H-MCC950. After the addition of radiolabeled MCC950, the plate was incubated for 60 minutes at room temperature before adding 0.25 mg/ml of copper-coated polyvinyltoluene SPA beads (PerkinElmer #RPNQ0095). The plate was then transferred to a microplate counter (PerkinElmer 2450 Microbeta) to collect binding data. Binding data was analyzed 6 hrs post-PVT bead addition to allow sufficient time to reach equilibrium. Specific binding was calculated from averaged duplicates by subtracting signal from wells without NLRP3 protein.
SPA NLRP3 IC50 assay results are provided in Table B. “A” activity=<1 uM; “B” activity=1-10 uM; “C” activity=>10-50 uM; “D” activity=>50 uM-100 uM; and “E” activity=>100 uM.
Take `C[C@@H]1CCN(c2nnn[nH]2)C[C@@H](NC(=O)N(C)c2ccc(Cl)cc2)C1` (single isomer, unassigned) [4B*]: the IC50 is 1 to 10 µM. The value for `C[C@H]1CCN(c2nnn[nH]2)C[C@H](NC(=O)N(C)c2ccc(Cl)cc2)C1` (single isomer, unassigned) [4C*] was 50 to 100 µM; that for `CC1CCN(c2nnn[nH]2)CC(NC(=O)N(C)c2ccc(Cl)cc2)C1` (single isomer, unassigned) [4D*] was 1 to 10 µM. The value for `C[C@@H]1CCN(c2nnn[nH]2)C[C@@H](NC(=O)N(C)c2ccc(Cl)cc2F)C1` (single isomer, unassigned) [5B*] was 1 to 10 µM; that for `C[C@H]1CCN(c2nnn[nH]2)C[C@H](NC(=O)N(C)c2ccc(Cl)cc2F)C1` (single isomer, unassigned) [5C*] was 50 to 100 µM; that for `C[C@H]1CCN(c2nnn[nH]2)C[C@@H](NC(=O)N(C)c2ccc(Cl)cc2F)C1` (single isomer, unassigned) [5D*] was 1 to 10 µM. In turn, `C[C@@H]1CCN(c2nnn[nH]2)C[C@@H](NC(=O)N(C)c2ccc(Cl)cc2Cl)C1` (single isomer, unassigned) [7B*] returned a concentration for half-maximal inhibition (IC50) of 1 to 10 µM. As to `C[C@H]1CCN(c2nnn[nH]2)C[C@H](NC(=O)N(C)c2ccc(Cl)cc2Cl)C1` (single isomer, unassigned) [7C*], the IC50 was in the range of 50 to 100 µM.

`C[C@H]1CCN(c2nnn[nH]2)C[C@@H](NC(=O)N(C)c2ccc(Cl)cc2Cl)C1` (single isomer, unassigned) [7D*]: the IC50 was in the range of 10 to 50 µM.

With `C[C@@H]1CCN(c2nnn[nH]2)C[C@@H](NC(=O)N(C)c2ccc(C3CC3)cc2)C1` (single isomer, unassigned) [8B*], the IC50 was 1 to 10 µM. Turning to `C[C@H]1CCN(c2nnn[nH]2)C[C@H](NC(=O)N(C)c2ccc(C3CC3)cc2)C1` (single isomer, unassigned) [8C*], the IC50 is > 100 µM. Regarding `C[C@H]1CCN(c2nnn[nH]2)C[C@@H](NC(=O)N(C)c2ccc(C3CC3)cc2)C1` (single isomer, unassigned) [8D*], the IC50 fell in the range of 1 to 10 µM.

`C[C@@H]1CCN(c2nnn[nH]2)C[C@@H](NC(=O)N(C)c2ccc(C(F)(F)F)c(F)c2)C1` (single isomer, unassigned) [9B*] displayed an IC50 of 1 to 10 µM.

Consider `C[C@H]1CCN(c2nnn[nH]2)C[C@H](NC(=O)N(C)c2ccc(C(F)(F)F)c(F)c2)C1` (single isomer, unassigned) [9C*], for which the half-maximal inhibitory concentration (IC50) is > 100 µM. The value for `C[C@@H]1CCN(c2nnn[nH]2)C[C@@H](NC(=O)N(C)c2ccc(OC(F)(F)F)cc2)C1` (single isomer, unassigned) [10B*] was 1 to 10 µM. As to `C[C@H]1CCN(c2nnn[nH]2)C[C@H](NC(=O)N(C)c2ccc(OC(F)(F)F)cc2)C1` (single isomer, unassigned) [10C*], the IC50 is > 100 µM. As for `C[C@H]1CCN(c2nnn[nH]2)C[C@@H](NC(=O)N(C)c2ccc(OC(F)(F)F)cc2)C1` (single isomer, unassigned) [10D*], the IC50 was in the range of 1 to 10 µM.

`C[C@@H]1CCN(c2nnn[nH]2)C[C@@H](NC(=O)N(C)c2ccc(OC(F)F)cc2)C1` (single isomer, unassigned) [11B*]: the IC50 was 1 to 10 µM. With `C[C@H]1CCN(c2nnn[nH]2)C[C@H](NC(=O)N(C)c2ccc(OC(F)F)cc2)C1` (single isomer, unassigned) [11C*] the figure was 50 to 100 µM; with `C[C@H]1CCN(c2nnn[nH]2)C[C@@H](NC(=O)N(C)c2ccc(OC(F)F)cc2)C1` (single isomer, unassigned) [11D*], 1 to 10 µM; with `C[C@@H]1CCN(c2nnn[nH]2)C[C@@H](NC(=O)N(C)c2ccc(Cl)c(F)c2)C1` (single isomer, unassigned) [12B*], 1 to 10 µM. The value for `C[C@H]1CCN(c2nnn[nH]2)C[C@H](NC(=O)N(C)c2ccc(Cl)c(F)c2)C1` (single isomer, unassigned) [12C*] was 10 to 50 µM.

Turning to `C[C@H]1CCN(c2nnn[nH]2)C[C@@H](NC(=O)N(C)c2ccc(Cl)c(F)c2)C1` (single isomer, unassigned) [12D*], the IC50 is > 100 µM.

`C[C@@H]1CCN(c2nnn[nH]2)C[C@@H](NC(=O)N(C)c2ccc(C(F)(F)F)cc2F)C1` (single isomer, unassigned) [13B*]: the IC50 was 1 to 10 µM. The value for `C[C@H]1CCN(c2nnn[nH]2)C[C@H](NC(=O)N(C)c2ccc(C(F)(F)F)cc2F)C1` (single isomer, unassigned) [13C*] was > 100 µM. In turn, `C[C@H]1CCN(c2nnn[nH]2)C[C@@H](NC(=O)N(C)c2ccc(C(F)(F)F)cc2F)C1` (single isomer, unassigned) [13D*] had an IC50 of 1 to 10 µM. In turn, `C[C@@H]1CCN(c2nnn[nH]2)C[C@@H](NC(=O)N(C)c2ccc(OC(F)(F)F)c(F)c2)C1` (single isomer, unassigned) [14B*] had a half-maximal inhibitory concentration (IC50) of 1 to 10 µM.

Regarding `C[C@H]1CCN(c2nnn[nH]2)C[C@H](NC(=O)N(C)c2ccc(OC(F)(F)F)c(F)c2)C1` (single isomer, unassigned) [14C*], the IC50 is > 100 µM. With `C[C@H]1CCN(c2nnn[nH]2)C[C@@H](NC(=O)N(C)c2ccc(OC(F)(F)F)c(F)c2)C1` (single isomer, unassigned) [14D*] the figure was 10 to 50 µM; with `C[C@@H]1CCN(c2nnn[nH]2)C[C@@H](NC(=O)N(C)c2ccc(OC(F)F)c(F)c2)C1` (single isomer, unassigned) [15B*], 1 to 10 µM. With `C[C@H]1CCN(c2nnn[nH]2)C[C@H](NC(=O)N(C)c2ccc(OC(F)F)c(F)c2)C1` (single isomer, unassigned) [15C*] the figure was > 100 µM; with `C[C@H]1CCN(c2nnn[nH]2)C[C@@H](NC(=O)N(C)c2ccc(OC(F)F)c(F)c2)C1` (single isomer, unassigned) [15D*], 1 to 10 µM; with `C[C@@H]1CCN(c2nnn[nH]2)C[C@@H](NC(=O)N(C)c2ccc(OC(F)F)c(OC(F)F)c2)C1` (single isomer, unassigned) [16B*], 1 to 10 µM. In the case of `C[C@H]1CCN(c2nnn[nH]2)C[C@H](NC(=O)N(C)c2ccc(OC(F)F)c(OC(F)F)c2)C1` (single isomer, unassigned) [16C*], the IC50 was in the range of 50 to 100 µM.

Turning to `C[C@H]1CCN(c2nnn[nH]2)C[C@@H](NC(=O)N(C)c2ccc(OC(F)F)c(OC(F)F)c2)C1` (single isomer, unassigned) [16D*], the IC50 lay in the range of 1 to 10 µM.

With `C[C@@H]1CCN(c2nnn[nH]2)C[C@@H](NC(=O)N(C)c2ccc(OC(F)F)cc2F)C1` (single isomer, unassigned) [17B*], the half-inhibitory concentration (IC50) was 1 to 10 µM.

`C[C@H]1CCN(c2nnn[nH]2)C[C@H](NC(=O)N(C)c2ccc(OC(F)F)cc2F)C1` (single isomer, unassigned) [17C*] yielded a concentration for half-maximal inhibition (IC50) of 1 to 10 µM.

Turning to `C[C@H]1CCN(c2nnn[nH]2)C[C@@H](NC(=O)N(C)c2ccc(OC(F)F)cc2F)C1` (single isomer, unassigned) [17D*], the IC50 is > 100 µM. For the compound `C[C@@H]1CCN(c2nnn[nH]2)C[C@@H](NC(=O)N(C)c2ccc(C(F)F)cc2F)C1` (single isomer, unassigned) [18B*], the IC50 is 1 to 10 µM. With `C[C@H]1CCN(c2nnn[nH]2)C[C@H](NC(=O)N(C)c2ccc(C(F)F)cc2F)C1` (single isomer, unassigned) [18C*] the figure was 10 to 50 µM; with `C[C@H]1CCN(c2nnn[nH]2)C[C@@H](NC(=O)N(C)c2ccc(C(F)F)cc2F)C1` (single isomer, unassigned) [18D*], 10 to 50 µM; with `C[C@@H]1CCN(c2nnn[nH]2)C[C@@H](NC(=O)N(C)c2c(F)cc(OC(F)F)cc2F)C1` (single isomer, unassigned) [19B*], 1 to 10 µM.

Regarding `C[C@H]1CCN(c2nnn[nH]2)C[C@H](NC(=O)N(C)c2c(F)cc(OC(F)F)cc2F)C1` (single isomer, unassigned) [19C*], the IC50 was > 100 µM. With `C[C@H]1CCN(c2nnn[nH]2)C[C@@H](NC(=O)N(C)c2c(F)cc(OC(F)F)cc2F)C1` (single isomer, unassigned) [19D*] the figure was 1 to 10 µM; with `C[C@@H]1CCN(c2nnn[nH]2)C[C@@H](NC(=O)N(C)c2c(F)cc(C3CC3)cc2F)C1` (single isomer, unassigned) [20B*], 1 to 10 µM; with `C[C@H]1CCN(c2nnn[nH]2)C[C@H](NC(=O)N(C)c2c(F)cc(C3CC3)cc2F)C1` (single isomer, unassigned) [20C*], 10 to 50 µM. In the case of `C[C@H]1CCN(c2nnn[nH]2)C[C@@H](NC(=O)N(C)c2c(F)cc(C3CC3)cc2F)C1` (single isomer, unassigned) [20D*], the concentration for half-maximal inhibition (IC50) fell in the range of 1 to 10 µM. With `C[C@@H]1CCN(c2nnn[nH]2)C[C@@H](NC(=O)N(C)c2ccc(C(F)(F)F)c(F)c2F)C1` (single isomer, unassigned) [21B*] the figure was 1 to 10 µM. As for `C[C@H]1CCN(c2nnn[nH]2)C[C@H](NC(=O)N(C)c2ccc(C(F)(F)F)c(F)c2F)C1` (single isomer, unassigned) [21C*], the 50% inhibitory concentration (IC50) was > 100 µM. The value for `C[C@H]1CCN(c2nnn[nH]2)C[C@@H](NC(=O)N(C)c2ccc(C(F)(F)F)c(F)c2F)C1` (single isomer, unassigned) [21D*] was 1 to 10 µM.
